Reference: patent publication US8507562B2, “Synthesis of (1)-beta-elemene, (-)-beta-elemenal, (-)-beta-elemenol, (-)-beta-elemene fluoride and their analogues, intermediates, and composition and uses thereof” (HYWE Pharmaceuticals, Inc., priority 2004, dated 2013)
Converted amounts (≈) assume the structure as drawn.

What was measured:
human glioma cells = assay: MTT assay, elemene analogs; type: cell-based; conditions: for IC50: Homo sapiens, Glioma cell
Method: (§1) The MTT assay is a commonly used method in evaluation of cell survival, based on the ability of viable cells to convert MTT, a soluble tetrazolium salt [3-(4,5-dimethylthuazole-2-yl)-2,5 diphenyl tetrazolium bromide], into an insoluble formazan precipitate, which is quantitated by spectrophotometry following solubilization in dimethyl sulfoxide (DMSO).
(§2) The cells were then solubilized in 125 μl of DMSO and absorbance readings were taken using a 96-well Opsys MRI Microplate Reader (ThermoLabsystems; Chantilly, Va.). The amount of MTT dye reduction was calculated based on the difference between absorbance at 570 nm and at 630 nm. Cell viability in treated cells was expressed as the amount of dye reduction relative to that of untreated control cells. The wells which contained only medium and 10 μl of MTT were used as blanks for the plate reader. Three sets of experiments were performed in 8-12 wells for each treatment.

H-460 lung cancer = assay: MTT survival assay; type: cell-based, human; conditions: 2 × 10^4 cells/ml
Method: as §1, §2
(§3) In brief, carcinoma cells treated with test articles alone, in 96-well tissue culture dishes were incubated with MTT (2 μg/ml) for 4 h. The cells were then solubilized in 125 μl of DMSO and absorbance readings were taken using a 96-well Opsys MRI Microplate Reader (ThermoLabsystems; Chantilly, Va.). The amount of MTT dye reduction was calculated based on the difference between absorbance at 570 nm and at 630 nm. Cell viability in treated cells was expressed as the amount of dye reduction relative to that of untreated control cells. The wells that contained only medium and 10 μl of MTT were used as blanks for the plate reader.
The cells were then solubilized in 125 μl of DMSO and absorbance readings were taken using a 96-well Opsys MRI Microplate Reader (ThermoLabsystems; Chantilly, Va.). The amount of MTT dye reduction was calculated based on the difference between absorbance at 570 nm and at 630 nm. Cell viability in treated cells was expressed as the amount of dye reduction relative to that of untreated control cells. The wells which contained only medium and 10 μI of MTT were used as blanks for the plate reader. Three sets of experiments were performed in 8-12 wells for each treatment.

A549 lung cancer = assay: MTT survival assay; conditions: 2 × 10^4 cells/ml
Method: as §1, §3

[1] = system: human breast cancer Bcap-37; conditions: 30 mg/kg/time ip × 7 qd
human lung cancer A549 = conditions: 30 mg/kg/time ip × 7 qd
[2] = system: human prostate cancer PC-3M; conditions: 30 mg/kg/time ip × 7 qd
human colon cancer HCT-8 = conditions: 30 mg/kg/time ip × 7 qd
human liver cancer QGY = conditions: 30 mg/kg/time ip × 7 qd
[3] = system: human breast cancer ao10/17; conditions: 30 mg/kg/time ip × 7 qd

For “(S)-5-Isopropenyl-1,2-dimethyl-cyclohex-2-enol, and (R)-5-Isopropenyl-1,2-dimethyl-cyclohex-2-enol [Lr-5]”, the “IC50 in human glioma cells” value (human glioma cells; 24 hr) was greater than 200 µg/mL, the “IC50 in human glioma cells” value (human glioma cells; 48 hr) was greater than 200 µg/mL and the “IC50 in human glioma cells” value (human glioma cells; 72 hr) was greater than 200 µg/mL.

With `C=C[C@]1(C)CC[C@@H](C(=C)C=O)C[C@H]1C(=C)C` [(−)-beta-elemenal, (−)-Beta-elemenal] the IC50 (H-460 lung cancer; H460, 24 h) was 27.6 µg/mL (≈ 126 µM), the IC50 (H-460 lung cancer; H460, 48 h) was 25.5 µg/mL (≈ 117 µM) and the IC50 (H-460 lung cancer; H460, 72 h) was 11.0 µg/mL (≈ 50.4 µM). The IC50 (A549 lung cancer; A549, 24 h) was 45.6 µg/mL (≈ 209 µM), the IC50 (A549 lung cancer; A549, 48 h) was 35.0 µg/mL (≈ 160 µM) and the IC50 (A549 lung cancer; A549, 72 h) was 35.0 µg/mL (≈ 160 µM).

In the case of “(1S,5S)-3,5-Diisopropenyl-2-methyl-cyclohex-2-enol, and (1R,5S)-3,5-Diisopropenyl-2-methyl-cyclohex-2-enol [Lr-7]”, the “IC50 in human glioma cells” value (human glioma cells; 24 hr) is reported as greater than 200 µg/mL, the “IC50 in human glioma cells” value (human glioma cells; 48 hr) is reported as greater than 200 µg/mL and the “IC50 in human glioma cells” value (human glioma cells; 72 hr) is reported as greater than 200 µg/mL.

In the case of “(1R,5S)-1-Isobutyl-3,5-diisopropenyl-2-methyl-cyclohex-2-enol, and (1S,5S)-1-Isobutyl-3,5-diisopropenyl-2-methyl-cyclohex-2-enol [Lr-8]”, the “IC50 in human glioma cells” value (human glioma cells; 24 hr) is reported as 106.2 µg/mL, the “IC50 in human glioma cells” value (human glioma cells; 48 hr) is reported as 105.2 µg/mL and the “IC50 in human glioma cells” value (human glioma cells; 72 hr) is reported as 103.3 µg/mL.

In the case of `C=C(C)[C@H]1CC=C(C)C(=O)C1` [Lr-9, (S)-5-Isopropenyl-2-methyl-cyclohex-2-enone], the IC50 (human glioma cells; 24 hr) is reported as greater than 200 µg/mL, the IC50 (human glioma cells; 48 hr) is reported as greater than 200 µg/mL and the IC50 (human glioma cells; 72 hr) is reported as greater than 200 µg/mL.

For `O=P1(N(CCCl)CCCl)NCCCO1` (stereo not drawn) [CTX, Cyclophosphamide, reference compound], the “Inhibition Rate %” value [1] was 84.23%, the “Tumor Weight (g) X ± SD” value [1] was 0.205 ± 0.12 g and the “Inhibition Rate %” value (human lung cancer A549) was 85.13%. The “Tumor Weight (g) X ± SD” value (human lung cancer A549) was 0.29 ± 0.07 g, the “Inhibition Rate %” value [2] was 87.27% and the “Tumor Weight (g) X ± SD” value [2] was 0.205 ± 0.1 g. For the same compound, the “Inhibition Rate %” value (human colon cancer HCT-8) was 88.11%, the “Tumor Weight (g) X ± SD” value (human colon cancer HCT-8) was 0.170 ± 0.08 g and the “Inhibition Rate %” value (human liver cancer QGY) was 89.37%. The “Tumor Weight (g) X ± SD” value (human liver cancer QGY) was 0.22 ± 0.12 g, the “Inhibition Rate %” value [3] was 87.50% and the “Tumor Weight (g) X ± SD” value [3] was 0.15 ± 0.08 g.

`C=C(C)[C@@H]1CC=C(C)C(=O)C1` [Lr-10, (R)-5-Isopropenyl-2-methyl-cyclohex-2-enone] gave an IC50 (human glioma cells; 24 hr) greater than 200 µg/mL, an IC50 (human glioma cells; 48 hr) greater than 200 µg/mL and an IC50 (human glioma cells; 72 hr) greater than 200 µg/mL.
